According to ChEMBL document CHEMBL4304779, “Treatment of Cancers by Inhibition of Isoprenylcysteine Carboxyl Methyltransferase” (ACS Med Chem Lett, 2019):
pIC50: −log10 of the molar value.

Molecular target: Protein-S-isoprenylcysteine O-methyltransferase (Homo sapiens, UniProt O60725)
Test: Inhibition of recombinant human ICMT expressed in baculovirus infected Sf9 insect cells using SAM as substrate preincubated for 30 mins followed by substrate addition and measured after 90 mins by MTase-Glo assay

Chain of Protein-S-isoprenylcysteine O-methyltransferase (O60725 whole entry): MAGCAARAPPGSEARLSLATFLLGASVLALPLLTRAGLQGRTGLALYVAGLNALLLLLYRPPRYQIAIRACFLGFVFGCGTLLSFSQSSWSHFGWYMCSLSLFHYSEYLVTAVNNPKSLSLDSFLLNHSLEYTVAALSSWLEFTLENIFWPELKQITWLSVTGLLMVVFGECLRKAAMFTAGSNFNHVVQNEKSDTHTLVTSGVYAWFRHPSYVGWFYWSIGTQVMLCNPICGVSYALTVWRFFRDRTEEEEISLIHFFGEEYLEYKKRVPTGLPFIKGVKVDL

| SMILES | pIC50 |
| --- | --- |
| Cc1cc(C#N)ccc1O[C@@H](C)COc1cccc(-c2ccnn2C)c1 | 8.80 |
| COc1cc(C#N)ccc1O[C@@H](C)COc1cccc(-n2ccnc2C)c1 | 10.10 |
